32 compounds from patent US11098063B2, “Diazabicyclic substituted imidazopyrimidines and their use for the treatment of breathing disorders” (Bayer Aktiengesellschaft, priority 2017, dated 2021) can be followed below.

One may read the IC50 as the point on the concentration scale where inhibition reaches its midpoint.

The target in one assay is human TASK-1 (Homo sapiens (Human), UniProt O14649). The assay can be described thus: Inhibition of recombinant TASK-1 in stably transfected CHO cells (voltage-sensitive dye, KCl depolarization). The following applies: depolarization by 40 mM potassium chloride. Format: cell-based. The method, then: (§1) B-2. Inhibition of Recombinant TASK-1 and TASK-3 In Vitro
(§2) The investigations on the inhibition of the recombinant TASK-1 and TASK-3 channels were conducted using stably transfected CHO cells. The compounds according to the invention were tested in this case by application of 40 mM potassium chloride in the presence of a voltage-sensitive dye according to the method described in detail in the following references [Whiteaker et al., Validation of FLIPR membrane potential dye for high-throughput screening of potassium channel modulators, J. Biomol. Screen. 6 (5), 305-312 (2001); Molecular Devices FLIPR Application Note: Measuring membrane potential using the FLIPR® membrane potential assay kit on Fluorometric Imaging Plate Reader (FLIPR®) systems, http://www.moleculardevices.com/reagents-supplies/assay-kits/ion-channels/flipr-membrane-potential-assay-kits]. The activity of the test substances was determined as their ability to inhibit a depolarization induced in the recombinant cells by 40 mM potassium chloride. The concentration which can block half of this depolarization is referred to as IC50.

The next assay has as its target human TASK-3 (Homo sapiens (Human), UniProt Q9NPC2). In words: Inhibition of recombinant TASK-3 in stably transfected CHO cells (voltage-sensitive dye, KCl depolarization). Format: cell-based. The following applies: depolarization by 40 mM potassium chloride. The method, then: as §1, §2

Sequence of human TASK-1 (O14649 whole entry): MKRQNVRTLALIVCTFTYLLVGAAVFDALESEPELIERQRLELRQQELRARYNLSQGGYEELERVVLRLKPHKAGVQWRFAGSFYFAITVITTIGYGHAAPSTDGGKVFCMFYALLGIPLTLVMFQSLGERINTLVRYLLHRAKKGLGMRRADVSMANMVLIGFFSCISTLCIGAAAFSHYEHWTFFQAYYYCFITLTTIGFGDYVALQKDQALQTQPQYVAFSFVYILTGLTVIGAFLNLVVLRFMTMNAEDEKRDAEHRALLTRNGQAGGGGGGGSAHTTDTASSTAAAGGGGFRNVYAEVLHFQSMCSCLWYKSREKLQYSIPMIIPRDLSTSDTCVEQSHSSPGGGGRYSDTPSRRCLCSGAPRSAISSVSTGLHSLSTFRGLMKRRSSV
Sequence of human TASK-3 (Q9NPC2 whole entry): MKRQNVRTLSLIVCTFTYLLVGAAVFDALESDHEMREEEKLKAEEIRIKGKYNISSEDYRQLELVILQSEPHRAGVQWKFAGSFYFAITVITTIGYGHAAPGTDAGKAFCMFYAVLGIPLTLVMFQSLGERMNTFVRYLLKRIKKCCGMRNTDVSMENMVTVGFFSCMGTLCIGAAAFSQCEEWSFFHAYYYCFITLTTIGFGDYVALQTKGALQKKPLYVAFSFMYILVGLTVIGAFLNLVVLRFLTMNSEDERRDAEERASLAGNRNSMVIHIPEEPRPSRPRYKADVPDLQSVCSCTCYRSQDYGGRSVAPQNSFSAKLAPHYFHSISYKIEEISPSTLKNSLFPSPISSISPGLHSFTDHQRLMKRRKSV

For `COc1ccc(F)c(C(=O)N2CC3CCC2CN3Cc2c(-c3ccc(Br)cc3)nc3ncccn23)n1` (stereo not shown) [Example 81], the IC50 came out at 0.82 µM at human TASK-1 and 0.021 µM at human TASK-3.
The matching figures for `CC(C)(C)OC(=O)N1CC2CCC1CN2Cc1c(-c2ccc(Cl)cc2)nc2ncccn12` (single isomer, unassigned) [Example 5, tert-Butyl 5-{[2-(4-chlorophenyl)imidazo[1,2-a]pyrimidin-3-yl]methyl}-2,5-diazabicyclo[2.2.2]octane-2-carboxylate]: 17 µM and 1.3 µM.
As to `COc1ccc(C)c(C(=O)N2CC3CCC2CN3Cc2c(-c3ccc(C(C)C)cc3)nc3ncccn23)n1` (stereo not shown) [Example 77], the IC50 at human TASK-1 is 0.72 µM; on human TASK-3, 0.0049 µM.
The matching figures for `CCOc1ccc(N(C)C(=O)N2C3CCC2CN(Cc2c(-c4ccc(Cl)cc4)nc4ncccn24)C3)cc1` [Example 120, 3-{[2-(4-chlorophenyl)imidazo[1,2-a]pyrimidin-3-yl]methyl}-N-(4-ethoxyphenyl)-N-methyl-3,8-diazabicyclo[3.2.1]octane-8-carboxamide]: 15 µM and 0.23 µM.
On to `O=C(c1nc(C(F)(F)F)cs1)N1C2CCC1CN(Cc1c(-c3ccc(Cl)cc3)nc3ncccn13)C2` [Example 60], for which the results for the IC50 on human TASK-1 and at human TASK-3 were 0.67 µM and 0.43 µM, respectively.
The matching figures for `COc1ccc(F)c(C(=O)N2C3COCC2CN(Cc2c(-c4ccc(C(C)C)cc4)nc4ncccn24)C3)n1` [Example 18, (3-Fluoro-6-methoxypyridin-2-yl)(7-{[2-(4-isopropylphenyl)imidazo[1,2-a]pyrimidin-3-yl]methyl}-3-oxa-7,9-diazabicyclo[3.3.1]non-9-yl)methanone]: 0.91 µM and 0.0086 µM.
For `COc1cccc(C(=O)N2CC3CCC2CN3Cc2c(-c3ccc(Cl)cc3)nc3ncccn23)c1` (stereo not shown) [Example 38], the values for the IC50 on human TASK-1 and on human TASK-3 were 9.6 µM and 0.32 µM, respectively.
`COc1ccc(Cl)c(C(=O)N2CC3CCC2CN3Cc2c(-c3ccc(C(C)C)cc3)nc3ncccn23)n1` (stereo not shown) [Example 69]: the IC50 amounted to 2.8 µM on human TASK-1 and 0.022 µM at human TASK-3.
The matching figures for `COc1ccc(Cl)c(C(=O)N2C3COCC2CN(Cc2c(-c4ccc(C(C)C)cc4)nc4ncccn24)C3)n1` [Example 67]: 1.2 µM and 0.017 µM.
The matching figures for `COc1cccc(C(=O)N2CC3CCC2CN3Cc2c(-c3ccc(C(C)C)cc3)nc3ncccn23)n1` (stereo not shown) [Example 73]: 9.1 µM and 0.081 µM.
The like results for `COc1ccc(Cl)c(C(=O)N2C3CCC2CN(Cc2c(-c4ccc(C5CC5)cc4)nc4ncccn24)C3)n1` [Example 136, (3-chloro-6-methoxypyridin-2-yl)(3-{[2-(4-cyclopropylphenyl)imidazo[1,2-a]pyrimidin-3-yl]methyl}-3,8-diazabicyclo[3.2.1]octan-8-yl)methanone] were, in that order, 0.32 µM and 0.041 µM.
Regarding `CCN(C(=O)N1C2CCC1CN(Cc1c(-c3ccc(Cl)cc3)nc3ncccn13)C2)C1CCCCC1` [Example 112, 3-{[2-(4-chlorophenyl)imidazo[1,2-a]pyrimidin-3-yl]methyl}-N-cyclohexyl-N-ethyl-3,8-diazabicyclo[3.2.1]octane-8-carboxamide], the values for the IC50 on human TASK-1 and on human TASK-3 were 15 µM and 0.13 µM, respectively.
For `COc1cccc(C(=O)N2CC3CCC2CN3Cc2c(-c3ccc(Cl)cc3)nc3ncccn23)c1` (stereo not shown) [Example 43], the IC50 was found to be 1 µM on human TASK-1 and 0.32 µM on human TASK-3.
The like results for `CCOC(=O)N1C2CCC1CN(Cc1c(-c3ccc(Cl)cc3)nc3ncccn13)C2` [Example 124, ethyl 3-{[2-(4-chlorophenyl)imidazo[1,2-a]pyrimidin-3-yl]methyl}-3,8-diazabicyclo[3.2.1]octane-8-carboxylate] were, in that order, 0.79 µM and 0.017 µM.
In the case of `CCCOC(=O)N1C2CCC1CN(Cc1c(-c3ccc(Cl)cc3)nc3ncccn13)C2` [Example 126, propyl 3-{[2-(4-chlorophenyl)imidazo[1,2-a]pyrimidin-3-yl]methyl}-3,8-diazabicyclo[3.2.1]octane-8-carboxylate], the IC50 on human TASK-1 is 0.28 µM; on human TASK-3, 0.014 µM.
With `O=C(c1cscn1)N1C2CCC1CN(Cc1c(-c3ccc(Cl)cc3)nc3ncccn13)C2` [Example 61], the IC50 is 3 µM on human TASK-1 and 0.64 µM at human TASK-3.
The matching figures for `O=C(C1CCCC1)N1C2CCC1CN(Cc1c(-c3ccc(C4CC4)cc3)nc3ncccn13)C2` [Example 134, cyclopentyl(3-{[2-(4-cyclopropylphenyl)imidazo[1,2-a]pyrimidin-3-yl]methyl}-3,8-diazabicyclo[3.2.1]octan-8-yl)methanone]: 0.77 µM and 0.097 µM.
The matching figures for `O=C(c1ccccc1F)N1C2CCC1CN(Cc1c(-c3ccc(Br)cc3)nc3ncccn13)C2` [Example 83]: 0.25 µM and 0.014 µM.
On to `O=C(Nc1c(Cl)cccc1Cl)N1C2CCC1CN(Cc1c(-c3ccc(Cl)cc3)nc3ncccn13)C2` [Example 91, 3-{[2-(4-chlorophenyl)imidazo[1,2-a]pyrimidin-3-yl]methyl}-N-(2,6-dichlorophenyl)-3,8-diazabicyclo[3.2.1]octane-8-carboxamide], for which the figures for the IC50 at human TASK-1 and at human TASK-3 were 20 µM and 0.41 µM, respectively.
Consider `COc1cccc(C(=O)N2C3COCC2CN(Cc2c(-c4ccc(C(C)C)cc4)nc4ncccn24)C3)n1` [Example 66], for which the IC50 on human TASK-1 worked out at 3.7 µM; at human TASK-3, 0.02 µM.
The like results for `CC(C)(C)OC(=O)N1CC2CCC1CN2Cc1c(-c2ccc(Cl)cc2)nc2ncccn12` (single isomer, unassigned) [Example 4, tert-Butyl 5-{[2-(4-chlorophenyl)imidazo[1,2-a]pyrimidin-3-yl]methyl}-2,5-diazabicyclo[2.2.2]octane-2-carboxylate] were, in that order, 0.47 µM and 0.097 µM.
Take `CC(C)c1ccc(-c2nc3ncccn3c2CN2CC3CCC(C2)N3C(=O)OC(C)(C)C)cc1` [Example 130, tert-Butyl 3-{[2-(4-isopropylphenyl)imidazo[1,2-a]pyrimidin-3-yl]methyl}-3,8-diazabicyclo[3.2.1]octane-8-carboxylate]: the IC50 at human TASK-1 came to 1.7 µM; at human TASK-3, 0.21 µM.
The like results for `COc1ccc(Cl)c(C(=O)N2CC3CCC2CN3Cc2c(-c3ccc(Cl)cc3)nc3ncccn23)n1` (single isomer, unassigned) [Example 23, (3-Chloro-6-methoxypyridin-2-yl)(5-{[2-(4-chlorophenyl)imidazo[1,2-a]pyrimidin-3-yl]methyl}-2,5-diazabicyclo[2.2.2]oct-2-yl)methanone] were, in that order, 1.6 µM and 0.1 µM.
The like results for `CC(C)N(C(=O)N1C2CCC1CN(Cc1c(-c3ccc(Cl)cc3)nc3ncccn13)C2)c1ccc(Cl)cc1` [Example 118, N-(4-chlorophenyl)-3-{[2-(4-chlorophenyl)imidazo[1,2-a]pyrimidin-3-yl]methyl}-N-isopropyl-3,8-diazabicyclo[3.2.1]octane-8-carboxamide] were, in that order, 19 µM and 0.22 µM.
The like results for `CSc1cccc(C(=O)N2C3CCC2CN(Cc2c(-c4ccc(Cl)cc4)nc4ncccn24)C3)n1` [Example 33] were, in that order, 0.19 µM and 0.13 µM.
In the case of `CC(C)(C)OC(=O)N1CC2CCC1CN2Cc1c(-c2ccc(Br)cc2)nc2ncccn12` (stereo not shown) [Example 11], the IC50 at human TASK-1 is 2.5 µM; at human TASK-3, 0.016 µM.
The matching figures for `O=C(c1cncs1)N1C2CCC1CN(Cc1c(-c3ccc(Cl)cc3)nc3ncccn13)C2` [Example 55]: 2.9 µM and 0.17 µM.
Take `COc1ccc(C)c(C(=O)N2CC3CCC2CN3Cc2c(-c3ccc(C(C)C)cc3)nc3ncccn23)n1` (stereo not shown) [Example 78]: the figures for the IC50 at human TASK-1 and on human TASK-3 were 3.8 µM and 0.024 µM, respectively.
With `CC(C)N(C(=O)N1C2CCC1CN(Cc1c(-c3ccc(Cl)cc3)nc3ncccn13)C2)C(C)C` [Example 111, 3-{[2-(4-chlorophenyl)imidazo[1,2-a]pyrimidin-3-yl]methyl}-N,N-diisopropyl-3,8-diazabicyclo[3.2.1]octane-8-carboxamide], the IC50 was 6.3 µM on human TASK-1 and 0.29 µM at human TASK-3.
The like results for `O=C(c1ccccc1F)N1CC2CCC1CN2Cc1c(-c2ccc(Cl)cc2)nc2ncccn12` (stereo not shown) [Example 42] were, in that order, 1 µM and 0.34 µM.
The like results for `O=C(c1cccc(OC(F)F)n1)N1C2CCC1CN(Cc1c(-c3ccc(C4CC4)cc3)nc3ncccn13)C2` [Example 138, (3-{[2-(4-cyclopropylphenyl)imidazo[1,2-a]pyrimidin-3-yl]methyl}-3,8-diazabicyclo[3.2.1]octan-8-yl)[6-(difluoromethoxy)pyridin-2-yl]methanone] were, in that order, 3.2 µM and 0.29 µM.
The matching figures for `Cc1ccccc1CNC(=O)N1C2CCC1CN(Cc1c(-c3ccc(Cl)cc3)nc3ncccn13)C2` [Example 107, 3-{[2-(4-chlorophenyl)imidazo[1,2-a]pyrimidin-3-yl]methyl}-N-(2-methylbenzyl)-3,8-diazabicyclo[3.2.1]octane-8-carboxamide]: 30 µM and 0.75 µM.
